Reference: article PMC4607407 (PLoS ONE, 2015)
Where two headings read alike, the source gives them in different places.

How the values were obtained:
[1] = test system: KPL-4 tumors; assay: KPL-4 xenograft combination study; type: in vivo, mice; conditions: vs untreated control; ARQ 092 60 mg/kg oral daily 12 days; trastuzumab 15 mg/kg iv every three days; paclitaxel 15 mg/kg iv every 6 days
Method: (§5) The tumor length and width (mm) were measured using a digital caliper. The estimated tumor volume (mm^3) was calculated according to the following formula: 0.5 x (tumor length) x (tumor width)^2, and reported as the mean ± SEM.

[2] = test system: melanoma PDX tumor model (ST052C); assay: Vemurafenib-resistant melanoma PDX combination study; type: in vivo, mice; conditions: ARQ 092 100 mg/kg 5 days on 2 days off; trametinib 3 mg/kg; p<0.05
Method: Athymic nude mice (Charles River Laboratories, Wilmington, MA) were subcutaneously implanted with tumor fragments and the study was initiated seven days later when the mean tumor volume was approximately 140 mm^3. […] After 13 days, the dosing schedule for trametinib was reduced to a schedule of 5 days on and 2 days off.
as §5

[3] = biological target: T1, AKT1-WT (Homo sapiens, UniProt P31749); assay: AKT1 plasma membrane translocation in NIH 3T3 cells; type: cell-based; conditions: NIH 3T3, 1 μM for 2 hours, PDGF-BB 50 ng/ml 10 minutes
T1 construct: host or cells: NIH 3T3 cells
T1 sequence (P31749 whole entry): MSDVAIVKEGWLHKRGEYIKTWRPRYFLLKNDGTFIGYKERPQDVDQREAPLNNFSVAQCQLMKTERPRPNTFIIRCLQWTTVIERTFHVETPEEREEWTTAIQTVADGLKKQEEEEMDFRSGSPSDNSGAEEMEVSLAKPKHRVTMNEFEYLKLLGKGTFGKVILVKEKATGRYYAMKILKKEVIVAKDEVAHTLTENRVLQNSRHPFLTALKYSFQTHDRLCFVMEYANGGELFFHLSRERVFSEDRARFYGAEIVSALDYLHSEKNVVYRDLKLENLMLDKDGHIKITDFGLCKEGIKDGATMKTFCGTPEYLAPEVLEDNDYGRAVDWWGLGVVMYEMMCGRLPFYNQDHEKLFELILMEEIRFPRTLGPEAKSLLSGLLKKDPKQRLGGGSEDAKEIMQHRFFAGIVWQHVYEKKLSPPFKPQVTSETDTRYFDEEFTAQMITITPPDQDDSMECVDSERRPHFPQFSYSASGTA
Method: (§1) Cells (15,000 cells per chamber) were plated into a Nunc Lab-Tek Chambered Coverglass System (Thermo Fisher Scientific, Waltham, MA) containing full media without antibiotics. […] Next, the cells were stimulated with PDGF (PeproTech, Rocky Hill, NJ) at 50 ng/ml for 10 minutes. Cells were washed with PBS and then fixed with 200 μl paraformaldehyde fixation buffer (3% paraformaldehyde, 2% sucrose in PBS, pre-warmed at […]). After washing with PBS, cells were blocked and permeabolized with 0.1% TX-100 + 1% BSA in PBS for 15 minutes at room temperature. Next, 200 μl DAPI (1 μg/ml in PBS) was used to counterstain the nuclei at room temperature in darkness for 15 minutes. Samples were then rinsed with cold PBS and stored at 4°C until imaging. Images were captured using an Olympus inverted epi-fluorescent microscope (Olympus Corporation of America, Center Valley, PA) with a 60x oil immersion objective.

[4] = biological target: T2, AKT1-E17K (Homo sapiens, UniProt P31749, E17K); assay: as above; type: cell-based; conditions: NIH 3T3, 1 μM for 2 hours, PDGF-BB 50 ng/ml 10 minutes
T2 construct: host or cells: NIH 3T3 cells
T2 sequence (P31749 whole entry E17K): as the sequence (P31749 whole entry) above, with E17K counted along it
Method: as §1

[5] = test system: MDA-MB-453; assay: Cell proliferation MTS assay; type: cell-based; conditions: Homo sapiens, read-out: IC50 MDA-MB-453 (PIK3CAH1047R)
Method: (§2) IC50 was calculated using Activity Base. Data shown as mean ± standard deviation. […] (DOCX) Click here for additional data file.
(§3) Treated cells were incubated at 37°C for 72 hours in 5% CO2.
(§4) The GI50 was then determined using Microsoft ExcelFit software in Activity Base.

[6] = test system: KU-19-19; assay: Cell proliferation MTS assay; type: cell-based; conditions: Homo sapiens, read-out: IC50 KU-19-19 (AKT1-E17K, NrasQ61R)
Method: as §2, §3, §4

[7] = test system: NCI-H1650; assay: Cell proliferation MTS assay; type: cell-based; conditions: Homo sapiens, read-out: IC50 NCI-H1650 (PTEN null)
Method: as §2, §3, §4

Compound: CC(=O)O[C@H]1C(=O)[C@@]2(C)[C@H]([C@H](OC(=O)c3ccccc3)[C@]3(O)C[C@H](OC(=O)[C@H](O)[C@@H](NC(=O)c4ccccc4)c4ccccc4)C(C)=C1C3(C)C)[C@]1(OC(C)=O)CO[C@@H]1C[C@@H]2O [paclitaxel, reference compound]
- tumor growth inhibition [1]: 41%

Compound: CC(=O)Nc1cccc(-n2c(=O)n(C3CC3)c(=O)c3c(Nc4ccc(I)cc4F)n(C)c(=O)c(C)c32)c1 [trametinib, reference compound]
- TGI [2]: 26%

Compound: NC1(c2ccc(-c3nc4ccn5c(=O)[nH]nc5c4cc3-c3ccccc3)cc2)CCC1 [MK-2206, reference compound]
- plasma membrane translocation of AKT1-WT [3]: inhibited
- plasma membrane translocation of AKT1-E17K [4]: only weakly inhibited
- IC50 ([5]; MDA-MB-453, MTS, 72 hours, mean ± standard deviation): 0.26 ± 0.02 µM
- IC50 ([6]; KU-19-19, MTS, 72 hours, mean ± standard deviation): 21.5 ± 5.3 µM
- IC50 ([7]; NCI-H1650, MTS, 72 hours, mean ± standard deviation): 15.2 ± 3.01 µM

Compound: CC(C)NC[C@@H](C(=O)N1CCN(c2ncnc3c2[C@H](C)C[C@H]3O)CC1)c1ccc(Cl)cc1 [GDC-0068, reference compound]
- plasma membrane translocation of AKT1-WT [3]: stimulated translocation
- plasma membrane translocation of AKT1-E17K [4]: stimulated translocation
- IC50 ([5]; MDA-MB-453, 72 h): 1 ± 0.16 µM
- IC50 ([6]; KU-19-19, 72 h): 55 ± 5.1 µM
- IC50 ([7]; NCI-H1650, 72 h): > 33.3 µM
